# According to publication PMC12250302, “Synthesis, Antimicrobial Activities, and Model of Action of Novel Tetralone Derivatives Containing Aminoguanidinium Moiety” (International Journal of Molecular Sciences, 2025):
# Like-named read-outs stand apart in the source and are kept apart here.
# How the values were obtained:
# MRSA-2 biofilm [1] = assay: Biofilm formation inhibition assay (crystal violet); assay type: cell-based, Staphylococcus aureus; details: Staphylococcus aureus, MRSA, 24 h, read-out: inhibition rate of biofilm formation
# Method: The effect of 2D on the biofilm formation of MRSA was evaluated. MRSA-2 was cultured in MH broth for a period of 3–5 h, after which it was diluted to a density of 1 × 10^6 CFU/mL with MH broth. […] After the removal of the suspended bacteria, the well plates were washed thrice with PBS. Then, 150 μL of methanol was added and fixed for 30 min. Subsequent to air-drying, 150 μL of a 0.1% crystal violet aqueous solution was added. Following a 15 min staining period, the excess crystal violet was removed by rinsing with flowing water. Finally, 150 μL of anhydrous ethanol was added and the mixture was incubated for 20 min. The optical density at 575 nm was detected.
# MRSA-2 biofilm [2] = assay: Biofilm elimination assay (crystal violet); assay type: cell-based, Staphylococcus aureus; details: at the test concentration
# Method: The ability of 2D to eliminate biofilm was evaluated. MRSA-2 (1 × 10^6 CFU/mL) was incubated in 96-well plates for 24 h until biofilm formation. The planktonic bacteria were discarded and washed thrice with PBS. […] According to the above method, the OD575 nm value was detected after the following steps: PBS washing, methanol fixation, crystal violet staining, and ethanol incubation.
# MRSA-2 [3] = assay: MRSA-induced mouse skin abscess model; assay type: in vivo
# Text: The MRSA-induced mouse skin abscess model was used to assess the in vivo antibacterial effects of 2D. Female KM mice, aged 4–6 weeks and weighing 20 ± 2 g, were purchased from the Laboratory Animal Center, Lanzhou Institute of Veterinary Medicine, Chinese Academy of Agricultural Sciences. The animal experiments were approved by the Ethics Committee of Research Involving Animals of the Lanzhou Institute of Husbandry and Pharmaceutical Science of CAAS (Approval number: 2025-03) and performed in accordance with the guidelines of the Ethics Committee for Animal Experiments. Prior to the formal experiment, all mice were acclimated for 5 days. The mice were kept in a pathogen-free environment with a 12 h light/12 h dark cycle, 50% ± 10% humidity, and a temperature of 24 °C ± 2 °C. […] The depilation method employed was as follows: depilatory paste was applied to the designated area for 10 min, after which it was thoroughly washed with 0.9% saline. The mice were semi-anesthetized by intraperitoneal injection with sodium Ulatan (TCI, 20%, 100 μL). […] After a 24 h interval, the administration was repeated, and 24 h after the last administration, the volume of abscess was measured and calculated. Then, the skin of the infected site and main organs were collected for tissue bacterial load and pathological detection.
# S. aureus ATCC 29213 = assay: MIC and MBC testing, broth microdilution; assay type: cell-based, Staphylococcus aureus; details: Staphylococcus aureus
# Method in brief: (§1)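 Bacteria are grown in MH broth to log phase, diluted to 1 × 10^6 CFU/mL, then added to doubling dilutions of compound. After 18 h incubation at 37 °C, the lowest concentration lacking visible growth is recorded as MIC. Each concentration is run in triplicate.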
# E. faecium ATCC 35667 = assay: MIC and MBC testing, broth microdilution; assay type: cell-based, Enterococcus faecium; details: Enterococcus faecium
# Method in brief: as §1
# MRSA-2 [4] = assay: Growth curve (OD600); assay type: cell-based, Staphylococcus aureus; details: 2D 0.5, 1, 2, 4, 8 µg/mL, vancomycin 0.5 and 1 μg/mL
# Method: (§2) The growth inhibition and time-dependent killing abilities of 2D were evaluated against S. aureus (ATCC 29213) and MRSA-2. After culturing the strains in MH broth until the logarithmic growth phase, they were diluted with MH broth to 1 × 10^6 CFU/mL. […] OD600 values were measured at predetermined time intervals (0, 1, 2, 4, 6, 8, 10, 12, and 24 h).
# S. aureus (ATCC 29213) = assay: Growth curve (OD600); assay type: cell-based, Staphylococcus aureus; details: 2D 0.5, 1, 2, 4, 8 µg/mL, vancomycin 0.5 and 1 μg/mL
# Method: as §2
# [5] = test system: clinical S. aureus isolate LMY46; assay: MIC and MBC testing, broth microdilution; assay type: cell-based, Staphylococcus aureus; details: Staphylococcus aureus; for MIC: 18 h
# Method in brief: (§3)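 Triplicate broth microdilution: MH broth, serial 2× dilution of compounds dissolved in DMSO, 1 × 10^6 CFU/mL bacteria grown to log phase, 18 h at 37 °C, followed by MBC determination.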
# [6] = test system: clinical S. aureus isolate LMY45; assay: MIC and MBC testing, broth microdilution; assay type: cell-based, Staphylococcus aureus; details: Staphylococcus aureus; for MIC: 18 h
# Method in brief: as §3
# MRSA-2 [7] = assay: MIC and MBC testing, broth microdilution; assay type: cell-based, Staphylococcus aureus; details: Staphylococcus aureus; for MIC: 18 h
# Method in brief: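 Broth microdilution in MH broth; two-fold serial dilutions of DMSO-dissolved compound; inoculum 1 × 10^6 CFU/mL from log-phase culture; 37 °C, 18 h; triplicates; MBC also read.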
# [8] = test system: clinical S. aureus isolate LMY47; assay: MIC and MBC testing, broth microdilution; assay type: cell-based, Staphylococcus aureus; details: Staphylococcus aureus; for MIC: 18 h
# Method in brief: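 Log-phase cultures, adjusted to 1 × 10^6 CFU/mL in MH broth, are exposed to twofold serial compound dilutions and held at 37 °C for 18 h. Triplicate per concentration; both inhibitory and bactericidal endpoints are taken.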
# [9] = test system: clinical S. aureus isolate LMY48; assay: MIC and MBC testing, broth microdilution; assay type: cell-based, Staphylococcus aureus; details: Staphylococcus aureus; for MIC: 18 h
# Method in brief: as §3
# MRSA-1 = assay: MIC and MBC testing, broth microdilution; assay type: cell-based, Staphylococcus aureus; details: Staphylococcus aureus; for MIC: 18 h
# Method in brief: as §3
# MRSA-2 [10] = assay: Fluorescence microscopy assay (DAPI/PI); assay type: cell-based, Staphylococcus aureus; details: vancomycin 4 µg/mL; 2D 4 and 8 μg/mL; 2 h
# Method: MRSA-2 was cultivated to the logarithmic growth phase, then washed with PBS and resuspended in PBS until the concentration of bacterial suspension reached 1 × 10^8 CFU/mL. […] Thereafter, the samples were incubated with DAPI (10 μM) and PI (10 μM) in the dark for 15 min. The bacterial cells were then subjected to observation under a fluorescence microscope. DMSO served as the negative controls.
# [11] = test system: K. pneumoniae ATCC 700603; assay: MIC and MBC testing, broth microdilution; assay type: cell-based, Klebsiella pneumoniae; details: Klebsiella pneumoniae
# Method in brief: as §1
# [12] = test system: S. aureus, including MRSA; assay: MIC testing, summary over S. aureus strains; assay type: cell-based; details: Staphylococcus aureus
# Method: (§4) The minimum inhibitory concentration (MIC) of all synthesized compounds was tested by the broth microdilution method. In brief, compounds dissolved in DMSO were diluted twice continuously in a 96-well plate with MH broth. The ESKAPE pathogens (E. coli ATCC 25922, S. aureus ATCC 29213, K. pneumoniae ATCC 700603, A. baumannii ATCC 19606, P. aeruginosa ATCC 27853, and E. faecium ATCC 35667), clinical S. aureus isolates (LMY45, LMY46, LMY47, and LMY48) and methicillin-resistant Staphylococcus aureus (MRSA-1 and MRSA-2) were cultured in MH broth to logarithmic growth phase and then diluted to 1 × 10^6 CFU/mL in MH broth. Subsequently, the diluted bacterial solution was mixed with the diluted compound solution in a 96-well plate and incubated at 37 °C for a duration of 18 h. The MIC of the compounds was recorded as the lowest concentration at which no visible growth was observed. […] Each concentration was replicated thrice.
# MRSA = assay: MIC testing, summary over MRSA strains; assay type: cell-based; details: Staphylococcus aureus; against MRSA
# Method: as §4
# E. coli ATCC 25922 = assay: MIC and MBC testing, broth microdilution; assay type: cell-based, Escherichia coli; details: Escherichia coli
# Method in brief: as §1
# P. aeruginosa ATCC 27853 = assay: MIC and MBC testing, broth microdilution; assay type: cell-based, Pseudomonas aeruginosa; details: Pseudomonas aeruginosa, ATCC27853, 18 h, read-out: MIC
# Method in brief: as §1
# A. baumannii ATCC 19606 = assay: MIC and MBC testing, broth microdilution; assay type: cell-based, Acinetobacter baumannii; details: Acinetobacter baumannii
# Method in brief: as §1
smiles,measurement,setting,value
"CN[C@H](CC(C)C)C(=O)N[C@H]1C(=O)N[C@@H](CC(N)=O)C(=O)N[C@H]2C(=O)N[C@H]3C(=O)N[C@H](C(=O)N[C@H](C(=O)O)c4cc(O)cc(O)c4-c4cc3ccc4O)[C@H](O)c3ccc(c(Cl)c3)Oc3cc2cc(c3O[C@@H]2O[C@H](CO)[C@@H](O)[C@H](O)[C@H]2O[C@H]2C[C@](C)(N)[C@H](O)[C@H](C)O2)Oc2ccc(cc2Cl)[C@H]1O [Vancomycin, reference compound]",inhibition at 0.25 µg/mL,MRSA-2 biofilm [1],~18.5%
same,inhibition at 0.5 µg/mL,MRSA-2 biofilm [1],~37.8%
same,biofilm elimination,MRSA-2 biofilm [2],unable to completely eliminate the biofilm
same,purulent lesions at the infection site (skin histopathology),MRSA-2 [3]; 5 mg/kg,significantly smaller
same,volume of skin abscess,"MRSA-2 [3]; 5 mg/kg, injected 2 h and 24 h postinfection, compared to model and solvent group",reduced volume
same,bacterial load of the skin at the infected site,"MRSA-2 [3]; 2D 5 and 10 mg/kg, vancomycin 5 mg/kg, compared with model and solvent group",significantly reduced
same,histopathology of the major organs,"MRSA-2 [3]; infected mice after treatment, H&E",no discernible lesions
same,MBC,S. aureus ATCC 29213; ATCC29213,4 mg/L
same,MIC,"S. aureus ATCC 29213; ATCC29213, 18 h",1 mg/L
same,MBC,E. faecium ATCC 35667; ATCC35667,16 mg/L
same,MIC,"E. faecium ATCC 35667; ATCC35667, 18 h",2 mg/L
same,growth inhibition (growth curve),MRSA-2 [4],failed to completely inhibit the growth
same,growth inhibition (growth curve),S. aureus (ATCC 29213),failed to completely inhibit the growth
same,MBC,[5],8 mg/L
same,MIC,[5],1 mg/L
same,MBC,[6],2 mg/L
same,MIC,[6],0.5 mg/L
same,MBC,MRSA-2 [7]; MRSA,2 mg/L
same,MIC,MRSA-2 [7]; MRSA,1 mg/L
same,MBC,[8],2 mg/L
same,MIC,[8],1 mg/L
same,MBC,[9],2 mg/L
same,MIC,[9],1 mg/L
same,MBC,MRSA-1; MRSA,4 mg/L
same,MIC,MRSA-1; MRSA,1 mg/L
same,PI red fluorescence (damaged membranes),MRSA-2 [10],a very small amount of red fluorescence
"[H]/N=C(\N)NN=C1CCCc2cc(OCc3ccc(Br)cc3)ccc21 [Compound 1S, (E)-2-(6-((4-bromobenzyl)oxy)-3,4-dihydronaphthalen-1(2H)-ylidene)hydrazine-1-carboximidamide]",MIC,"[11]; ATCC700603, 18 h, read-out: MIC",16 mg/L
same,MBC,"[11]; ATCC700603, read-out: MBC",16 mg/L
same,MIC,"S. aureus ATCC 29213; ATCC29213, S. aureus ATCC 29213, 18 h, read-out: MIC",2 mg/L
same,MBC,"S. aureus ATCC 29213; ATCC29213, S. aureus ATCC 29213, read-out: MBC",8 mg/L
same,MIC,[12],0.5 to 4 mg/L
same,MIC,MRSA,1 to 2 mg/L
same,MIC,"E. coli ATCC 25922; ATCC25922, 18 h, read-out: MIC",4 mg/L
same,MBC,"E. coli ATCC 25922; ATCC25922, read-out: MBC",8 mg/L
same,MIC,P. aeruginosa ATCC 27853,> 32 mg/L
same,MIC,"A. baumannii ATCC 19606; ATCC19606, 18 h, read-out: MIC",8 mg/L
same,MBC,"A. baumannii ATCC 19606; ATCC19606, read-out: MBC",16 mg/L
same,MIC,"E. faecium ATCC 35667; ATCC35667, E. faecium ATCC 35667, 18 h, read-out: MIC",4 mg/L
same,MBC,"E. faecium ATCC 35667; ATCC35667, E. faecium ATCC 35667, read-out: MBC",8 mg/L
same,MIC,"[5]; LMY46, read-out: MIC",1 mg/L
same,MBC,"[5]; LMY46, read-out: MBC",4 mg/L
same,MIC,"[6]; LMY45, read-out: MIC",2 mg/L
same,MBC,"[6]; LMY45, read-out: MBC",4 mg/L
same,MIC,"MRSA-2 [7]; MRSA-2, read-out: MIC",1 mg/L
same,MBC,"MRSA-2 [7]; MRSA-2, read-out: MBC",4 mg/L
same,MIC,"[8]; LMY47, read-out: MIC",2 mg/L
same,MBC,"[8]; LMY47, read-out: MBC",4 mg/L
same,MIC,"[9]; LMY48, read-out: MIC",4 mg/L
same,MBC,"[9]; LMY48, read-out: MBC",8 mg/L
same,MIC,"MRSA-1; MRSA-1, read-out: MIC",1 mg/L
same,MBC,"MRSA-1; MRSA-1, read-out: MBC",4 mg/L
